Several values for one entry are separate records, joined by “and”; a condition that tells them apart may be missing. Equal values may be shown once. Read-outs that look alike come from different tables or passages of the source.
Tests used:
pig WT-CFTR = target: T1, pig WT-CFTR (Sus scrofa, UniProt Q6PQZ2); experiment: Inside-out patch-clamp inhibition of CFTR current by Inh-172; assay type: cell-based
T1 construct: expressed in transfected cells; host or cells: CHO cells, pcDNA plasmid

[1] = target: T2, h-pTMD1-h-CFTR (human CFTR with pig CFTR's TMD1) (Homo sapiens, UniProt P13569, A209T/D426N/E115A/E407K/F315L/F87I/G228A/I125V/I215L/I231V/I328L/I332M/L145P/N418S/N445S/P41S/Q39H/R242K/S256N/T421I/V11I/V12F/V43S); experiment: as above; assay type: cell-based
T2 construct: expressed in transfected cells; host or cells: CHO cells, pcDNA plasmid

[2] = Visible precipitates in perfusion solution; assay type: physicochemical
Description: Point 7 (poorly deﬁned dose-response curves): The authors response would seem to explain why points may be missing from the left side of the plot (Fig 4e), but I don't think it explains their absence from the right side. The data points for the three mutants roughly deﬁne a straight line. In order to have a meaningful ﬁt that can be used to extract a reliable IC50, one needs to sample higher and lower concentrations than the authors have done.
While I understand that there may be technical limitations that make this difficult or impossible, I think scientiﬁc rigor still has to be maintained. If the experiment cannot be done properly due to technical limitations, that is ﬁne, but low quality data should not be interpreted and presented. […]
and include in a publication. I also still think that the way the authors are reporting signiﬁcant ﬁgures this is not good practice, though this aspect is more of a stylistic/precision issue.
In Fig. 4e, we added 25 nM and 10 µM data points for WT-CFTR, and the newly added data […]
added 10 µM data point for M348K-CFTR, so that for all tested mutants, the maximum [Inh-172] is 10 µM (All related ﬁgures in the main text are updated). We could not increase [Inh-172] further because precipitates were seen gushing out of our perfusion tubing at concentrations ≥ 20 µM. […]

[3] = 50 nM Inh-172, read-out: percent inhibition of current, Mean
[4] = 100 nM Inh-172, read-out: percent inhibition of current, Mean
[5] = 500 nM Inh-172, read-out: percent inhibition of current, Mean
[6] = 500 nM Inh-172, read-out: percent inhibition of current, individual cell
[7] = 1000 nM Inh-172, read-out: percent inhibition of current, Mean
[8] = 10000 nM Inh-172, read-out: percent inhibition of current, Mean
[9] = 10000 nM Inh-172, read-out: percent inhibition of current, individual cell

T1 sequence (Q6PQZ2 whole entry): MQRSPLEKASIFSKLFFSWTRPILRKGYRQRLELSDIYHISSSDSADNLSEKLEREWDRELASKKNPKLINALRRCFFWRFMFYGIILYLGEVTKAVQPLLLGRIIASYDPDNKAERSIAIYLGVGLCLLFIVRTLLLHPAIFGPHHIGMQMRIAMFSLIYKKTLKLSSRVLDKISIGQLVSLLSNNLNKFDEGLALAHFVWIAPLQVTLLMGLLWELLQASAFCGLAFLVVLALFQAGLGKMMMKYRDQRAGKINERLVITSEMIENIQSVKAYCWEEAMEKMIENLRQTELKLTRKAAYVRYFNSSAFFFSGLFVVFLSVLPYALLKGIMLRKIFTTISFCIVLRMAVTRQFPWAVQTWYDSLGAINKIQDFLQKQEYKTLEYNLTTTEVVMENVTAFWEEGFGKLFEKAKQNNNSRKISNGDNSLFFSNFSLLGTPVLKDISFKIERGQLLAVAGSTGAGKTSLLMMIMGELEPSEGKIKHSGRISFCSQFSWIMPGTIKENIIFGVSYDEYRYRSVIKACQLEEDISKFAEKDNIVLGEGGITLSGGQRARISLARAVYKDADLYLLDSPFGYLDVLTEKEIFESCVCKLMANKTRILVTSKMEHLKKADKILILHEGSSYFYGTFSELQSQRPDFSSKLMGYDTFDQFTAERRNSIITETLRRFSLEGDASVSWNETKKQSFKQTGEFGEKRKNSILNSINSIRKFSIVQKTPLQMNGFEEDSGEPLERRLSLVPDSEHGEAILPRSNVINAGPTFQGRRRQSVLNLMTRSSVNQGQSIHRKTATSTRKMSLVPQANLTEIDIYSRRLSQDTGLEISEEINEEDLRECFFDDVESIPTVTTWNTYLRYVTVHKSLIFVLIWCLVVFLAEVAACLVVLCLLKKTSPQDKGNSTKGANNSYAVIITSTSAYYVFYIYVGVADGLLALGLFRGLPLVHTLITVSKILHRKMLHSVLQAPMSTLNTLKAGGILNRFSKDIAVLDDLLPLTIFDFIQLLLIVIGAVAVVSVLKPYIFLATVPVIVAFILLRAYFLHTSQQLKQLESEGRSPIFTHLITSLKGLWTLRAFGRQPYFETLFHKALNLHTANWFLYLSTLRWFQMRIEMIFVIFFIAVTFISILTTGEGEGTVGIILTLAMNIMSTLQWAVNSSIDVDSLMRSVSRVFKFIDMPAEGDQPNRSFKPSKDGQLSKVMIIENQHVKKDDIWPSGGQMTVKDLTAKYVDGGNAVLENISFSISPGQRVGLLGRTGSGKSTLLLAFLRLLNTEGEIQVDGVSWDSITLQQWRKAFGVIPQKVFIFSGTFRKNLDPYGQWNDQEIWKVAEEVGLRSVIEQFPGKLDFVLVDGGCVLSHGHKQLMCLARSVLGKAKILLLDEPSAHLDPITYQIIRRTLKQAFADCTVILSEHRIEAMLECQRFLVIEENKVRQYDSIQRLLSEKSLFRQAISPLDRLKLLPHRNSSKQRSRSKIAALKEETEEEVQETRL
T2 sequence (P13569 1-1480 with the stated changes): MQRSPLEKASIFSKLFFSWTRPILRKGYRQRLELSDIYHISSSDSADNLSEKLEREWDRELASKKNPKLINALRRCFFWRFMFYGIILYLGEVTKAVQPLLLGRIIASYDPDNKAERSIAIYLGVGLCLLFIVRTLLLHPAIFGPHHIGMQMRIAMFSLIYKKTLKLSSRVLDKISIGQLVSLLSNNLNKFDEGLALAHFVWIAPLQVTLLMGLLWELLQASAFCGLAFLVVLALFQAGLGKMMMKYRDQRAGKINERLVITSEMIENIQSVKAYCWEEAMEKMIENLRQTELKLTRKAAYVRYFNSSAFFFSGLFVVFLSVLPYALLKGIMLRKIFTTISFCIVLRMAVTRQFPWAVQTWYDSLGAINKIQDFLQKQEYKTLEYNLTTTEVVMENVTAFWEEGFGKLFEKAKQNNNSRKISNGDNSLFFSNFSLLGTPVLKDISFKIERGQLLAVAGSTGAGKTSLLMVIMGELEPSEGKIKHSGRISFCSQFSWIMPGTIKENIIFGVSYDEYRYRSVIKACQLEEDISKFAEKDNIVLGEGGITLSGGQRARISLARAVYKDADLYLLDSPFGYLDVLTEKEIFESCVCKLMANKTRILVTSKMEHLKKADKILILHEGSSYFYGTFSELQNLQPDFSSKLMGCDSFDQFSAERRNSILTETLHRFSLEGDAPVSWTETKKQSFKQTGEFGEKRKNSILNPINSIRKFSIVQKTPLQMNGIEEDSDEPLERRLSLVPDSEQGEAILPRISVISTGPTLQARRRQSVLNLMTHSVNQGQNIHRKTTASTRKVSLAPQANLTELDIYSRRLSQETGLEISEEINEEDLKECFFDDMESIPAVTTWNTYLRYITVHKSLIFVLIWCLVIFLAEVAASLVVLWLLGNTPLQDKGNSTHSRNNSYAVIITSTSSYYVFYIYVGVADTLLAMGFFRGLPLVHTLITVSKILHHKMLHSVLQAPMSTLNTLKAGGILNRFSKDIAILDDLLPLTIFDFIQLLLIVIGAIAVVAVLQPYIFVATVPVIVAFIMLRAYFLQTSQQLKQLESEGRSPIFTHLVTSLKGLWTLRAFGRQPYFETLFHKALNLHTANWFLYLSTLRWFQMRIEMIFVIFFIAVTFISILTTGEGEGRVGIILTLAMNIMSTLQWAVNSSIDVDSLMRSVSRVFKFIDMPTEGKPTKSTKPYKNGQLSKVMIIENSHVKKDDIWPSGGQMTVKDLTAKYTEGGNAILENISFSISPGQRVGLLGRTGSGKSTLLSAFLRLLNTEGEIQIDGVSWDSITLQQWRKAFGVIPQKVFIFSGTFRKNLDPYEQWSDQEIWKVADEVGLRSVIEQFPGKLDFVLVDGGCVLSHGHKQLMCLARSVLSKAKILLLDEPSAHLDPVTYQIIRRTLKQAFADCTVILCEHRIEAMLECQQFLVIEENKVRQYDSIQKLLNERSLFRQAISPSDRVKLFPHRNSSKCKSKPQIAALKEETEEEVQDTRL

## O=C(O)c1ccc(/C=C2\SC(=S)N(c3cccc(C(F)(F)F)c3)C2=O)cc1 [Inh-172, CFTRinh-172]
Pig WT-CFTR; 50 nM Inh-172
  percent inhibition of current, individual cell: 2.0 and 4.0 and 8.0 and 15.0 and 7.0
Pig WT-CFTR; [3]
  inhibition at 0.05 µM: 7.2%
Pig WT-CFTR; 100 nM Inh-172
  percent inhibition of current, individual cell: 2.0 and 18.0 and 5.0 and 13.0 and 6.0 and 7.0
Pig WT-CFTR; [4]
  inhibition at 0.1 µM: 8.1%
Pig WT-CFTR; 500 nM Inh-172
  percent inhibition of current, individual cell: 31.0 and 27.0 and 25.0 and 23.0
Pig WT-CFTR; [5]
  inhibition at 0.5 µM: 25.9%
Pig WT-CFTR; [6]
  inhibition at 0.5 µM: 22%
Pig WT-CFTR; 1000 nM Inh-172
  percent inhibition of current, individual cell: 33.0 and 38.0 and 40.0 and 21.0 and 41.0 and 44.0 and 39.0 and 36.0 and 29.0 and 42.0
Pig WT-CFTR; [7]
  inhibition at 1 µM: 36.3%
Pig WT-CFTR; 5000 nM Inh-172
  percent inhibition of current, individual cell: 62.0 and 70.0 and 59.0 and 77.0 and 72.0 and 79.0
Pig WT-CFTR; 5000 nM Inh-172, read-out: percent inhibition of current, Mean
  inhibition at 5 µM: 68.1%
Pig WT-CFTR; 5000 nM Inh-172, read-out: percent inhibition of current, individual cell
  inhibition at 5 µM: 67%
Pig WT-CFTR; 10000 nM Inh-172
  percent inhibition of current, individual cell: 83.0 and 79.0 and 82.0 and 73.0 and 80.0 and 93.0
Pig WT-CFTR; [8]
  inhibition at 10 µM: 82.7%
Pig WT-CFTR; [9]
  inhibition at 10 µM: 89%
Pig WT-CFTR; Pig WT
  Hill Coefficient: 0.83 ± 0.04
  IC50: 1.86 ± 0.12 µM
Pig WT-CFTR; cho cells inside-out patch
  IC50 of pig WT-CFTR higher than human WT-CFTR: ~ 20 fold
[1]; 50 nM Inh-172
  percent inhibition of current, individual cell: 45.0 and 25.0
[1]; [3]
  inhibition at 0.05 µM: 35.8%
[1]; 50 nM Inh-172, read-out: percent inhibition of current, individual cell
  inhibition at 0.05 µM: 34%
[1]; 100 nM Inh-172
  percent inhibition of current, individual cell: 51.0 and 37.0 and 50.0
[1]; [4]
  inhibition at 0.1 µM: 44.3%
[1]; 100 nM Inh-172, read-out: percent inhibition of current, individual cell
  inhibition at 0.1 µM: 39%
[1]; 500 nM Inh-172
  percent inhibition of current, individual cell: 86.0 and 76.0
[1]; [5]
  inhibition at 0.5 µM: 81.8%
[1]; [6]
  inhibition at 0.5 µM: 79%
[1]; 1000 nM Inh-172
  percent inhibition of current, individual cell: 94.0 and 89.0
[1]; [7]
  inhibition at 1 µM: 92%
[1]; 1000 nM Inh-172, read-out: percent inhibition of current, individual cell
  inhibition at 1 µM: 91%
[1]; 10000 nM Inh-172
  percent inhibition of current, individual cell: 100.0
[1]; [8]
  inhibition at 10 µM: 99.8%
[1]; [9]
  inhibition at 10 µM: 99%
[1]; h-pTMD1-h
  Hill Coefficient: 0.98 ± 0.10
  IC50: 0.11 ± 0.01 µM
[2]
  concentration at which precipitates were seen: ≥ 20 µM
